Broadly, the IC50 is the concentration at which inhibition is half-maximal.

This assay deals with GABA-A receptor; anion channel. Put plainly: In vitro displacement of [3H]flunitrazepam from GABA-A central benzodiazepine receptor of rat cerebral cortex membranes. It is filed as cell membranes, Membrane. For orientation: In a radioligand displacement assay an active substance lowers the binding of a labelled ligand.
Turning to `CCOC1OC(=O)c2[nH]cc3nc4ccccc4c-3c21` (stereo not drawn), the IC50 came out at 20 nM.

Turning to `CCOC(=O)CN1C(=O)c2[nH]cc3nc4ccccc4c-3c2C1O` (stereo not drawn), the IC50 stood at 70 nM.

The compound `O=C1OC(=O)c2c1[nH]cc1nc3ccccc3c2-1` had a half-maximal inhibitory concentration (IC50) of 150 nM. Next, `O=C1OC(CO)c2c1[nH]cc1nc3ccccc3c2-1` (stereo not drawn): 0.2 nM. Next, `COC1OC(=O)c2[nH]cc3nc4ccccc4c-3c21` (stereo not drawn): 12 nM; `O=C1OC(O)c2c1[nH]cc1nc3ccccc3c2-1` (stereo not drawn): 47 nM; `CC1OC(=O)c2[nH]cc3nc4ccccc4c-3c21` (stereo not drawn): 20 nM. `COC(=O)c1cc2c(cn1)[nH]c1ccccc12` [BETA-CCM]: the IC50 was 2 nM.
